Structures can show the parent of a compound that is named as a salt.
Columns and labels:
[1] = test system: BV2 cells challenged with lipopolysaccharide (LPS); assay: Nitrite production in BV2 cells challenged with LPS (Griess method); format: cell-based
Experimental: […] At the end of the incubation, nitrite levels were measured using the Griess method.^12,14 Briefly, cell plates were centrifuged at 10,000×g for 5 min and the cell-free supernatant was incubated with an equal volume of Griess reagent (2 mM N-(1-naphtyl)ethylenediamide, 30 mM sulfanilamide and 140 mM o-phosphoric acid) for 10 min at room temperature. The absorbance was measured at 560 nm. Concentrations of nitrite (μM) were calculated from a standard curve of sodium nitrite.

HO-1 = HO-1 protein expression in THP-1 cells; format: cell-based, Human
Experimental: THP-1 cells were exposed to different concentration of compounds A, B, and C during 6 hours.

TNF-α = TNF-α production in THP-1 cells challenged with LPS; format: cell-based, Human; conditions: LPS (100 μg/ml), 5 μM compound, 24 h
Experimental: Human THP-1 cells cultured as in Example 3.3 were treated with LPS (100 μg/ml) alone or in the presence of 5 μM compound C, compound E or the comparative dimethyl fumarate (DMF) for 24 h.

| SMILES | Nitrite levels (μM) LPS + compound ([1]; 5 μM compound, 24 hr incubation with 0.5 μg/ml LPS, mean ± SEM) [µM] | % decrease vs. LPS (nitrite) ([1]; 5 μM compound, 24 hr, LPS) [%] | concentration giving almost the same reduction of nitrite production (compound C vs compound J) ([1]; BV2, LPS 1 μg/ml 24 h) [µM] | concentration needed for the same HO-1 result, as fold of the compound C concentration (5 μM) (HO-1) [fold] | TNF-α production (TNF-α) |
| --- | --- | --- | --- | --- | --- |
| C#CCOC(=O)/C=C/C(=O)OCC [Compound J] | 43.2 ± 1.0 | 50.1 | 5 | 10 | – |
| COC(=O)/C=C/C(=O)OC [dimethyl fumarate (DMF)] | – | – | – | – | did not have any effect |

From patent publication US9944669B2, “Fumarate-CO-releasing molecule hybrids, their use in the treatment of inflammatory or cardiovascular diseases and their process of preparation” (UNIVERSITE PARIS EST CRETEIL VAL DE MARNE, priority 2014, dated 2018)
